This passage reports IC50 results from patent publication US10787444B2, “Compounds for the modulation of myc activity” (Syros Pharmaceuticals, Inc., priority 2015, dated 2020).

One assay concerns the target T1, c-Myc/Max/Ebox DNA (Homo sapiens, UniProt P01106).
T1 construct: his6 (cleaved yes)
The assay can be described thus: c-Myc/Max/Ebox DNA AlphaScreen Assay. The assay is classed as binding. The note with it: calculated IC50 class. The method in brief:
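Compounds were preincubated with free c-Myc (20 nM), biotinylated single-Ebox DNA (10 nM) and Ni acceptor beads before his6-Max (5 nM) and streptavidin donor beads were added. Buffer was 50 mM HEPES pH 8.0, 150 mM NaCl, BSA, Tween20, glycogen and DTT, with DMSO ≤2%. After 2 h incubation, AlphaScreen signal was read at 680 nm excitation and 520–620 nm emission.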

In assay [1] the test system is human small lung cancer cell line H2171. The assay can be described thus: Cell Viability Assay (ATPlite). The assay is classed as cell-based. Particulars: H2171 cells, three days, ATPlite, calculated IC50 class, read-out: H2171 Activity. The method in brief: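 H2171 cells were plated at 20,000 cells/mL and dosed immediately by pin transfer with a 10-point dose series in DMSO. After three days at 37° C, ATPlite luminescence served as the viability readout.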

[2] abbreviates: Homo sapiens, NCI-H2171, 72 h, Table 2, compounds of FIG. 1.
Where [3] appears, read: Table 2, compounds of FIG. 1, listed as 116.

Molecules are shown by their SMILES. Like-named read-outs stand apart in the source and are kept apart here.

T1 sequence (P01106 whole entry): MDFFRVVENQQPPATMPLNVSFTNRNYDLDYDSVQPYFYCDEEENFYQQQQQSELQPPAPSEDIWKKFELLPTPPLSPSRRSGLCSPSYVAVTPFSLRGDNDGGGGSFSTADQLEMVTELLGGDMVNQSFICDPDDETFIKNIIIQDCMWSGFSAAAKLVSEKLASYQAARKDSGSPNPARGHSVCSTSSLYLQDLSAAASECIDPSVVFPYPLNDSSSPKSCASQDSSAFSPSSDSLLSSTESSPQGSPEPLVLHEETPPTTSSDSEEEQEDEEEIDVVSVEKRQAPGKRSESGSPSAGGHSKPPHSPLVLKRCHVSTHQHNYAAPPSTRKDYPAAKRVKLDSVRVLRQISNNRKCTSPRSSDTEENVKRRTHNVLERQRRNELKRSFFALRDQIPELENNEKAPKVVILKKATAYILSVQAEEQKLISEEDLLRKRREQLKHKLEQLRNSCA

On to `CC[C@H](C)NCCC(=O)Nc1sc2c(c1-c1nc3cc(C(F)(F)F)ccc3s1)CCN(C(C)C)C2` [Compound 578, (S)-3-(sec-butylamino)-N-(6-isopropyl-3-(5-(trifluoromethyl)benzo[d]thiazol-2-yl)-4,5,6,7-tetrahydrothieno[2,3-c]pyridin-2-yl)propanamide], for which the IC50 was 300 to 1000 nM at c-Myc/Max/Ebox DNA (Table 2, compounds of FIG. 1) and below 300 nM in assay [1] (setting [2]).
In the case of `CCN(C)CCC(=O)Nc1sc2c(c1-c1nc3ccccc3s1)CCN(C(C)C)C2` [Compound 572], the IC50 on c-Myc/Max/Ebox DNA (Table 2, compounds of FIG. 1) is 300 to 1000 nM; in assay [1] (setting [2]), below 300 nM.
As for `CC(=O)Nc1sc2c(c1-c1nc3ccccc3s1)C[C@@H](C)N[C@H]2C` (relative stereo) [Compound 206, N-(3-(benzo[d]thiazol-2-yl)-cis-5,7-dimethyl-4,5,6,7-tetrahydrothieno[2,3-c]pyridin-2-yl)acetamide], the IC50 on c-Myc/Max/Ebox DNA (Table 3, compounds of FIG. 2) is 1000 to 10000 nM; in assay [1] (Table 3, compounds of FIG. 2), 1000 to 10000 nM.
`CC(C)NCCC(=O)Nc1sc2c(c1-c1nc3ccccc3s1)CC(C)NC2C` (single isomer, unassigned) [Compound 195, N-(3-(benzo[d]thiazol-2-yl)-5,7-dimethyl-4,5,6,7-tetrahydrothieno[2,3-c]pyridin-2-yl)-3-(isopropylamino)propanamide]: the IC50 on c-Myc/Max/Ebox DNA (Table 2, compounds of FIG. 1) is below 300 nM; in assay [1] (Table 2, compounds of FIG. 1), below 300 nM.
Turning to `CCC1Cc2c(sc(NC(=O)CCNCCOC)c2-c2nc3ccccc3s2)C(CC)N1` (single isomer, unassigned) [Compound 537, N-(3-(Benzo[d]thiazol-2-yl)-5,7-diethyl-4,5,6,7-tetrahydrothieno[2,3-c]pyridin-2-yl)-3-((2-methoxyethyl)amino)propanamide], the IC50 on c-Myc/Max/Ebox DNA (Table 2, compounds of FIG. 1) is above 10000 nM; in assay [1] (Table 2, compounds of FIG. 1), below 300 nM.
Turning to `CCC(C)NCCC(=O)Nc1sc2c(c1-c1nc3cc4c(cc3s1)OCO4)CCNC2` (stereo not drawn) [Compound 555, N-(3-([1,3]Dioxolo[4′,5′:4,5]benzo[1,2-d]thiazol-6-yl)-4,5,6,7-tetrahydrothieno[2,3-c]pyridin-2-yl)-3-(sec-butylamino)propanamide], the IC50 was below 300 nM at c-Myc/Max/Ebox DNA (Table 2, compounds of FIG. 1); 1000 to 10000 nM on c-Myc/Max/Ebox DNA (setting [3]); below 300 nM in assay [1] (setting [2]); 1000 to 10000 nM in assay [1] (setting [3]).
Turning to `O=C(CCN[C@@H]1C[C@H]2CNC[C@H]2C1)Nc1sc2c(c1-c1nc3cc(-c4ccncc4)ccc3s1)CCNC2` [Compound 606, 3-(((3aR,5s,6aS)-octahydrocyclopenta[c]pyrrol-5-yl)amino)-N-(3-(5-(pyridin-4-yl)benzo[d]thiazol-2-yl)-4,5,6,7-tetrahydrothieno[2,3-c]pyridin-2-yl)propanamide], the IC50 is below 300 nM at c-Myc/Max/Ebox DNA (Table 2, compounds of FIG. 1) and 300 to 1000 nM in assay [1] (setting [2]).
In the same order, the values of `CC[C@H](C)NCCC(=O)Nc1sc2c(c1-c1nc3cc(-c4ccncc4)ccc3s1)CCNC2` [Compound 579, (S)-3-(sec-butylamino)-N-(3-(5-(pyridin-4-yl)benzo[d]thiazol-2-yl)-4,5,6,7-tetrahydrothieno[2,3-c]pyridin-2-yl)Propanamide] are below 300 nM and below 300 nM.
In the same order, the values of `COCCNCCC(=O)Nc1sc2c(c1-c1nc3cc(-c4cncc(F)c4)ccc3s1)CCNC2` [compound 337] are below 300 nM and below 300 nM.
In the case of `COCCNCCC(=O)Nc1sc2c(c1-c1nc3cc(-c4ccncc4)ccc3s1)CC(C)NC2C` (single isomer, unassigned) [Compound 523, N-(5,7-dimethyl-3-(5-(pyridin-4-yl)benzo[d]thiazol-2-yl)-4,5,6,7-tetrahydrothieno[2,3-c]pyridin-2-yl)-3-((2-methoxyethyl)amino)propanamide], the IC50 at c-Myc/Max/Ebox DNA (Table 2, compounds of FIG. 1) is 1000 to 10000 nM; in assay [1] (Table 2, compounds of FIG. 1), 300 to 1000 nM.
Take `CC[C@H](C)NCCC(=O)Nc1sc2c(c1-c1nc3ccccc3s1)CCNC2` [Compound 154, (S)—N-(3-(benzo[d]thiazol-2-yl)-4,5,6,7-tetrahydrothieno[2,3-c]pyridin-2-yl)-3-(sec-butylamino) propanamide]: the IC50 was 300 to 1000 nM at c-Myc/Max/Ebox DNA (Table 2, compounds of FIG. 1) and below 300 nM in assay [1] (setting [2]).
`COCCNCCC(=O)Nc1sc2c(c1-c1nc3ccc(-c4cccnc4)cc3s1)CC(C)NC2C` (single isomer, unassigned) [Compound 527, N-(5,7-Dimethyl-3-(6-(pyridin-3-yl)benzo[d]thiazol-2-yl)-4,5,6,7-tetrahydrothieno[2,3-c]pyridin-2-yl)-3-((2-methoxyethyl)amino)propanamide]: the IC50 is 300 to 1000 nM at c-Myc/Max/Ebox DNA (Table 2, compounds of FIG. 1) and below 300 nM in assay [1] (Table 2, compounds of FIG. 1).
Regarding `COCCNCCC(=O)Nc1sc2c(c1-c1nc3cc(F)ccc3s1)CC(C)NC2C` (single isomer, unassigned) [Compound 547, N-(3-(5-Fluorobenzo[d]thiazol-2-yl)-5,7-dimethyl-4,5,6,7-tetrahydrothieno[2,3-c]pyridin-2-yl)-3-((2-methoxyethyl)amino)propanamide], the IC50 on c-Myc/Max/Ebox DNA (Table 2, compounds of FIG. 1) is 1000 to 10000 nM; in assay [1] (Table 2, compounds of FIG. 1) it was below 300 nM.
Turning to `CCC(C)NCCC(=O)Nc1sc2c(c1-c1nc3cc(-c4cccnc4)ccc3s1)CCNC2` (stereo not drawn) [compound 150], the IC50 was below 300 nM on c-Myc/Max/Ebox DNA (Table 2, compounds of FIG. 1) and below 300 nM in assay [1] (setting [2]).
`CC(C)NCCC(=O)Nc1sc2c(c1-c1nc3c(Br)cccc3s1)CCNC2` [compound 516]: the IC50 on c-Myc/Max/Ebox DNA (Table 2, compounds of FIG. 1) was below 300 nM; in assay [1] (setting [2]) it was below 300 nM.
For the compound `CCC1Cc2c(sc(NC(=O)CCNCCOC)c2-c2nc3ccccc3s2)C(CC)N1` (single isomer, unassigned) [Compound 536, N-(3-(Benzo[d]thiazol-2-yl)-5,7-diethyl-4,5,6,7-tetrahydrothieno[2,3-c]pyridin-2-yl)-3-((2-methoxyethyl)amino)propanamide], the IC50 was 300 to 1000 nM at c-Myc/Max/Ebox DNA (Table 2, compounds of FIG. 1) and below 300 nM in assay [1] (setting [2]).
As for `COCCNCCC(=O)Nc1sc2c(c1-c1nc3cc(F)ccc3s1)CC(C)NC2C` (single isomer, unassigned) [Compound 546, N-(3-(5-Fluorobenzo[d]thiazol-2-yl)-5,7-dimethyl-4,5,6,7-tetrahydrothieno[2,3-c]pyridin-2-yl)-3-((2-methoxyethyl)amino)propanamide], the IC50 on c-Myc/Max/Ebox DNA (Table 2, compounds of FIG. 1) was above 10000 nM; in assay [1] (Table 2, compounds of FIG. 1), below 300 nM.
